Like-named read-outs stand apart in the source and are kept apart here.
What was measured:
[1] = system: kidney cells (M1/M2 macrophages); details: 4 days
[2] = for Glucose / HCO3− / Hct / pCO2 / pH / pO2: arterial blood, 0.1M NaHCO3 in drinking water
From the text: Arterial blood gas measurements: Dahl SS rats were anesthetized (2-5% isoflurane) and the left femoral artery was catheterized. Surgically implanted catheters were then tunneled under the skin and exposed between the shoulder blades. Catheters were protected by a light wire spring attached to a swivel (Instech Laboratories Inc, Plymouth Meeting, Pa.), which allows free 360-degree movement of the animal. Rats were individually housed and allowed to recover for 1 week before beginning experimental measurements. Catheters were filled with heparinized saline (30 U/mL) and connected to an infusion pump (Phd2000, Harvard Apparatus, Holliston, Mass.). Infusions of heparinized saline were maintained at 100 μL/hr over the course of the protocol. 0.2 mL arterial blood samples were taken prior to placing rats on treated water, on day 3 of low salt feeding and on day 7 of high salt feeding by disconnecting the catheter from the infusion pump proximal to emergence of the catheter from the rat and drawing arterial blood into a heparinized 1 mL syringe. Arterial blood gas measurements were performed on a Rapidpoint 4055 Blood gas analyzer (Seimens AG, Munich Germany) within 20 minutes of taking the sample. Arterial blood gas measurements on day 14 of HS feeding were taken at the time of sacrifice by left ventricular puncture in anesthetized (2-5% isoflurane) rats.
(§1) Rat protocols: Dahl SS rats: All rats were maintained on low salt chow with ad libitum water (tap water). […] Following four days of low salt (LS) feeding, rats were placed on an 8% HS diet (AIN76A 8%; Dyets) for two weeks. 24 hour urine collections were obtained on day 3 of low salt and day 7 and day 14 of high salt feeding if applicable. Following 14 days of HS feeding, rats were anesthetized with isoflurane (2-5%) and tissue harvested for analysis.
Blood gas/electrolytes: In a parallel study, rats were implanted with a femoral arterial catheter to allow arterial blood sampling.

[3] = system: TNF-α expressing splenic cells; details: spleens of rats, given orally in drinking solution
Method: To identify and evaluate immune cells in splenic tissues, a flow cytometry-based assay was employed. Buffering capacity and pH were determined by titration of the solutions with HCl.
To identify and evaluate immune cells in splenic tissues, a flow cytometry-based assay was used.

blood = details: 0.1M NaHCO3 in drinking water
Method: Flow cytometry: With the exception of one group of rats (n=5+5), in all HS fed Dah SS rats, blood pressure telemetry devices were implanted prior to beginning the study. […] No surgical procedures were performed on LS fed Dahl SS rats or Sprague Dawley rats prior to tissue harvest. On the day of tissue harvest rats were anesthetized with isoflurane (2-5%) and a midline incision was performed. The abdominal aorta was catheterized for the collection of ˜2mL of arterial blood in a heparinized tube and the left kidney excised and immediately processed for flow cytometry. Antibody markers utilized for flow cytometry as well as references are given in the online methods.
In all flow studies, cells were then incubated with antibodies for surface markers for 20 minutes on ice in the dark (all antibodies from Pharmingen-BD-Biosciences, San Jose, Calif.). Cells were then washed with PBS, fixed and permeabilized using FOXP3/Transcription Factor Fix/Perm Buffer (eBiosciences, San Diego, Calif.) for 15 minutes in the dark on ice, and washed once again with PBS before incubation with antibodies for intracellular staining of Foxp3, TNFa, IL-10, and IL-17, on ice in the dark for 20 minutes (BD Biosciences). Cells were then washed and run through a four-color flow cytometer (FACS Calibur, Becton-Dickinson), and data were collected using CellQuest software.
In all flow studies, group identifiers were removed and flow cytometry analysis was performed by an investigator unaware of the hypothesis or the origin of samples. Samples were double-stained with control IgG and cell markers and were used to assess any spillover signal of fluorochromes; proper compensation was set to ensure the median fluorescence intensities of negative and positive cells were identical and were both gated populations. Gating was used to exclude dead cells and debris using forward and side scatterplots. In each analysis, 100,000 total events were collected. As a gating strategy, for each sample, isotype-matched controls were analyzed to set the appropriate gates. For each marker, samples were analyzed in duplicate measurements. To minimize false-positive events, the number of double- positive events detected with the isotype controls was subtracted from the number of double-positive cells stained with corresponding antibodies (not isotype control), respectively. Cells expressing a specific marker were reported as a percentage of the number of gated events.
as §1
Dahl SS rats on the LS protocol were treated identically to the HS protocol above except following 4 days of LS rats were anesthetized and tissue harvested for flow cytometric analysis prior to beginning a HS diet.

[4] = system: kidney cells (M1/M2 macrophages)
[5] = Kidney, 14 Days HS, 0.1M NaHCO3 in drinking water
[6] = Kidney, 3 days LS, 0.1M NaHCO3 in drinking water

SMILES: O=C([O-])O.[Na+] [NaHCO3, sodium bicarbonate]
- dose dependence of the effect on polarization ([1]; 0.01M to 0.1M NaHCO3 in drinking water): dose dependent
- lowest NaHCO3 concentration in drinking water with changes in polarization ([1]; low salt laboratory chow): 0.01 M
- macrophage polarization in the kidney ([1]; out-bred Sprague Dawley rats): promote M2 polarization
- markers of plasma acid base status (pH, pCO2, HCO3−) ([2]; across the course of the study, versus vehicle): no significant difference
- Glucose ([2]; Day 3 LS): 195 ± 25 mg/dL
- HCO3− ([2]; Day 3 LS): 25.2 ± 0.7 mM
- Hct ([2]; Day 3 LS): 40 ± 0%
- pCO2 ([2]; Day 3 LS): 38.3 ± 1.1
- pH ([2]; Day 3 LS): 7.43 ± 0.01
- pO2 ([2]; Day 3 LS): 93.5 ± 2.4
- Glucose ([2]; Day 7 HS): 160 ± 16 mg/dL
- HCO3− ([2]; Day 7 HS): 26.9 ± 0.6 mM
- Hct ([2]; Day 7 HS): 39 ± 2%
- pCO2 ([2]; Day 7 HS): 39.4 ± 3.2
- pH ([2]; Day 7 HS): 7.46 ± 0.02
- pO2 ([2]; Day 7 HS): 113 ± 16
- Glucose ([2]; Day 14 HS): 235.4 ± 35 mg/dL
- HCO3− ([2]; Day 14 HS): 26.1 ± 1.0 mM
- Hct ([2]; Day 14 HS): 41 ± 2%
- pCO2 ([2]; Day 14 HS): 37.4 ± 4.9
- pH ([2]; Day 14 HS): 7.46 ± 0.03
- pO2 ([2]; Day 14 HS): 88.7 ± 8.5
- number of TNF-α (inflammatory) expressing cells [3]: significantly reduced
- CD3 (% total kidney) (blood; 14 Days HS): 57 ± 2%
- CD4 (% of CD3) (blood; 14 Days HS): 53 ± 2%
- CD44 (% of CD3) (blood; 14 Days HS): 14 ± 2%
- CD69 (% of CD3) (blood; 14 Days HS): 0.9 ± 0.3%
- FOXP3 (% of CD3/CD4) (blood; 14 Days HS): 4.4 ± 0.6%
- IL-17 (% of total kidney) (blood; 14 Days HS): 6 ± 1%
- CD3 (blood; 3 days LS): 57 ± 2%
- CD4 (blood; 3 days LS): 55 ± 1%
- CD44 (blood; 3 days LS): 18 ± 1%
- CD69 (blood; 3 days LS): 1.6 ± 0.5%
- FOXP3 (blood; 3 days LS): 5.8 ± 0.7%
- IL-17 (blood; 3 days LS): 5.6 ± 1.1%
- IL-10 expressing macrophages (M2-polarized macrophages) in the kidney ([4]; 14 days HS): increase
- TNFα expressing macrophages (M1-polarized macrophages) in the kidney ([4]; 14 days HS, p<0.01): decrease
- CD3 (% total kidney) [4, 5]: 1.8 ± 0.3%
- CD4 (% of CD3) [4, 5]: 55 ± 2%
- CD11b/c (% total kidney) [4, 5]: 0.4 ± 0.04%
- CD44 (% of CD3) [4, 5]: 36 ± 5%
- CD69 (% of CD3) [4, 5]: 2.8 ± 0.7%
- FOXP3 (% of CD3/CD4) [4, 5]: 3.3 ± 0.5%
- IL-10 (% of total kidney) [4, 5]: 4.2 ± 0.3%
- IL-17 (% of total kidney) [4, 5]: 0.7 ± 0.1%
- M1 (% of total kidney) [4, 5]: 0.12 ± 0.02%
- M2 (% of total kidney) [4, 5]: 0.2 ± 0.03%
- TNFα (% of total kidney) [4, 5]: 2.0 ± 0.3%
- CD3 [4, 6]: 1.1 ± 0.3%
- CD4 [4, 6]: 54 ± 2%
- CD11b/c [4, 6]: 0.24 ± 0.02%
- CD44 [4, 6]: 52 ± 3%
- CD69 [4, 6]: 0.9 ± 0.3%
- FOXP3 [4, 6]: 2.6 ± 0.5%
- IL-10 [4, 6]: 4.8 ± 0.5%
- IL-17 [4, 6]: 0.4 ± 0.2%
- M1 [4, 6]: 0.16 ± 0.04%
- M2 [4, 6]: 0.36 ± 0.02%
- TNFα [4, 6]: 1.4 ± 0.2%
- effect of NaHCO3 to promote M1 to M2 polarization in the kidney ([4]; after removal of the spleen or manipulation of the spleen to midline, HS diet for 2 weeks): completely abolished
- macrophage polarization in kidney tissue ([4]; low salt fed Dahl SS rats, p=0.007): polarization from predominately M1 to M2
- macrophage polarization with both marker sets ([4]; spleen and kidney, 14 days HS, alternative markers CD68/CD163/CD206): M1 to M2 polarization

— patent US11324774B2, “Compositions of oral alkaline salts and metabolic acid inducers and uses thereof” (Augusta University Research Institute, Inc., priority 2018, dated 2022)
